Literature values in patent US20230255953A1, “USE OF ROLUPERIDONE IN PREVENTING RELAPSE IN SCHIZOPHRENIA PATIENTS” (Minerva Neurosciences, Inc., priority 2022, published 2023).
Read-outs that look alike come from different tables or passages of the source.

What was measured:
[1] = test system: patients with schizophrenia; conditions: Durgam et al. 2016; cited from earlier work
chronic schizophrenia = conditions: Arato et al. 2002 (ZEUS), cited from earlier work

| SMILES | Relapse rate [1] | Relapse rate after one year (chronic schizophrenia; 40 mg/day) | Relapse rate after one year (chronic schizophrenia; 80 mg/day) | Relapse rate after one year (chronic schizophrenia; 160 mg/day) |
| --- | --- | --- | --- | --- |
| CN(C)C(=O)N[C@H]1CC[C@H](CCN2CCN(c3cccc(Cl)c3Cl)CC2)CC1 [cariprazine] | 24.8% |  |  |  |
| O=C1Cc2cc(CCN3CCN(c4nsc5ccccc45)CC3)c(Cl)cc2N1 [ziprasidone] |  | 43% | 35% | 36% |
